From patent publication US10988478B1, “Pyrazolo[1,5a]pyrimidine derivatives as IRAK4 modulators” (Genentech, Inc., priority 2015, dated 2021) come the findings set out here.

Structures are written as SMILES.

Sequence of human IRAK4 (Q9NWZ3 whole entry, the tested form may be a part): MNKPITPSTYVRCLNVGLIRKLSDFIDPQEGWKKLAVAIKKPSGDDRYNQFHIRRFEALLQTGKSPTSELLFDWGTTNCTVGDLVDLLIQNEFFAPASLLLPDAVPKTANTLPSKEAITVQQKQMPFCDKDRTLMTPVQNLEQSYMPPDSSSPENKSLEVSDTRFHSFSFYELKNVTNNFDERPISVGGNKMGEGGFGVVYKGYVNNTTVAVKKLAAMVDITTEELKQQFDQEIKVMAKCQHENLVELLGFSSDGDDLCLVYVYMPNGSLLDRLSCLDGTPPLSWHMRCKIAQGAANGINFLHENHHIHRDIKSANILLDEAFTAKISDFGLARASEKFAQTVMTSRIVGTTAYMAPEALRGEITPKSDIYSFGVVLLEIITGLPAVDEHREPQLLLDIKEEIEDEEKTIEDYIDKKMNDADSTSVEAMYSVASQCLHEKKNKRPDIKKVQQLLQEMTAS

This assay has as its target human IRAK4 (Homo sapiens (Human), UniProt Q9NWZ3). The assay is described as follows: IRAK4 kinase inhibition, Transcreener fluorescence polarization ADP assay. Conditions: recombinant full-length His6-IRAK4; 125 uM ATP; 90 min; Ki computed using ATP Km 642 uM. It counts as biochemical. On the procedure:
Compounds were assayed for inhibition of human IRAK4 and IRAK1 catalytic activity using recombinant enzyme produced from insect cells. Full-length IRAK4 protein, carrying an N-terminal His6-Tag, was obtained from Life Technologies (Carlsbad, Calif., USA). The IRAK1 construct was produced internally and was comprised of IRAK1 residues Arg194 to Ser712, preceded by an NH2-terminal His6 tag and the coding sequence for glutathione-S-transferase.
(In general: Polarisation of emitted light reports the rotation of a fluorescent probe.)
For the compound `C[C@]1(CO)Cc2cc(NC(=O)c3cnn4cccnc34)c(N3CCC4(CCOC4)CC3)cc2O1` [Example 125, (R)—N-(2-(Hydroxymethyl)-2-methyl-6-(2-oxa-8-azaspiro[4.5]decan-8-yl)-2,3-dihydrobenzofuran-5-yl)pyrazolo[1,5-a]pyrimidine-3-carboxamide], the Ki – broadly, a dissociation constant, usually derived from enzyme kinetics or from competition with a known ligand – is 5 nM.
`O=C(Nc1cc2c(cc1N1CCC(F)(CO)CC1)O[C@@](CO)(C(F)(F)F)C2)c1cnn2cccnc12` [Example 319, (S)-N-(6-(4-fluoro-4-(hydroxymethyl)piperidin-1-yl)-2-(hydroxymethyl)-2-(trifluoromethyl)-2,3-dihydrobenzofuran-5-yl)pyrazolo[1,5-a]pyrimidine-3-carboxamide]: the Ki came out at 3.1 nM.
Under `CC(C)(O)C1CCN(c2cc3c(cc2NC(=O)c2cnn4cccnc24)C[C@@](C)(CO)O3)CC1` [Example 323, N-[(2S)-2-(Hydroxymethyl)-6-[4-(1-hydroxy-1-methyl-ethyl)-1-piperidyl]-2-methyl-3H-benzofuran-5-yl]pyrazolo[1,5-α]pyrimidine-3-carboxamide] stands 4.2 nM; under `CC(C)(O)[C@]1(C)Cc2cc(NC(=O)c3cnn4cccnc34)c(N3CCN(Cc4c[nH]cn4)CC3)cc2O1` [Example 523, N-[(2S)-2-(1-hydroxy-1-methyl-ethyl)-6-[4-(1H-imidazol-4-ylmethyl)piperazin-1-yl]-2-methyl-3H-benzofuran-5-yl]pyrazolo[1,5-a]pyrimidine-3-carboxamide], 4.4 nM.
`CC1(C)Cc2cc(NC(=O)c3cnn4cccnc34)c(N3CCCNCC3)cc2O1` [Example 116, N-(6-(1,4-diazepan-1-yl)-2,2-dimethyl-2,3-dihydrobenzofuran-5-yl)pyrazolo[1,5-a]pyrimidine-3-carboxamide]: the Ki is 18 nM.
Under `O=C(Nc1cc2c(cc1N1CCOCC1)OC(CO)(CO)C2)c1cnn2cccnc12` [Example 394, N-(2,2-bis(hydroxymethyl)-6-morpholino-2,3-dihydrobenzofuran-5-yl)pyrazolo[1,5-a]pyrimidine-3-carboxamide] stands 75 nM.
Under `CC1(C)Cc2cc(NC(=O)c3cnn4ccc(C[C@@H]5CNC(=O)C5)nc34)c(C3CC3)cc2O1` [Example 512, (S)—N-(6-Cyclopropyl-2,2-dimethyl-2,3-dihydrobenzofuran-5-yl)-5-((5-oxopyrrolidin-3-yl)methyl)pyrazolo[1,5-a]pyrimidine-3-carboxamide] stands 150 nM.
As to `CC1(C)Cc2cc(NC(=O)c3cnn4cccnc34)c(N3CCOCC3)c(C#N)c2O1` [Example 143, N-(7-Cyano-2,2-dimethyl-6-morpholino-2,3-dihydrobenzofuran-5-yl)pyrazolo[1,5-a]pyrimidine-3-carboxamide], the Ki was determined as 740 nM.
Under `C[C@]1(CO)Cc2cc(NC(=O)c3cnn4cccnc34)c(N3C[C@@H]4C[C@H]3CO4)cc2O1` [Example 47, N—((R)-6-((1S,4S)-2-Oxa-5-azabicyclo[2.2.1]heptan-5-yl)-2-(hydroxymethyl)-2-methyl-2,3-dihydrobenzofuran-5-yl)pyrazolo[1,5-a]pyrimidine-3-carboxamide] stands 180 nM.
The same measure for `C[C@]1(O)COc2cc(N3CCN(CC(F)F)CC3)c(NC(=O)c3cnn4cccnc34)cc2C1` [Example 510, (R)—N-(7-(4-(2,2-difluoroethyl)piperazin-1-yl)-3-hydroxy-3-methylchroman-6-yl)pyrazolo[1,5-a]pyrimidine-3-carboxamide]: 44 nM; for `O=C(Nc1cc2c(cc1N1CCOCC1)C(=O)N(C[C@H]1CCOC1)C2)c1cnn2cccnc12` [Example 556, N-[6-morpholino-1-oxo-2-[[(3R)-tetrahydrofuran-3-yl]methyl]isoindolin-5-yl]pyrazolo[1,5-a]pyrimidine-3-carboxamide]: 4.5 nM; for `CCN1CCC2(CC1)Cc1cc(NC(=O)c3cnn4cccnc34)c(N3CCOCC3)cc1O2` [Example 502, N-(1′-ethyl-6-morpholino-3H-spiro[benzofuran-2,4′-piperidin]-5-yl)pyrazolo[1,5-a]pyrimidine-3-carboxamide]: 5.8 nM.
As for `CC1(C)Cc2cc(NC(=O)c3cnn4cccnc34)c(N3CCC(F)(C(N)=O)CC3)cc2O1` [Example 534, N-[6-(4-carbamoyl-4-fluoro-1-piperidyl)-2,2-dimethyl-3H-benzofuran-5-yl]pyrazolo[1,5-a]pyrimidine-3-carboxamide], the Ki came to 2 nM.
Under `O=C(Nc1cc2c(cc1N1CCOCC1)C(=O)N(CC1(CO)COC1)C2)c1cnn2cccnc12` [Example 268, N-[2-[[3-(Hydroxymethyl)oxetan-3-yl]methyl]-6-morpholino-1-oxo-isoindolin-5-yl]pyrazolo[1,5-a]pyrimidine-3-carboxamide] stands 75 nM.
Under `O=C(Nc1cc2c(cc1N1CCC(F)(CO)CC1)O[C@](CO)(C(F)(F)F)C2)c1cnn2cccnc12` (single isomer, unassigned) [Example 318] stands 4.3 nM; under `CC(=O)c1cnc2c(C(=O)Nc3cc4c(cc3N3CCOCC3)O[C@@](C)(CO)C4)cnn2c1` [Example 85, (R)-6-Acetyl-N-(2-(hydroxymethyl)-2-methyl-6-morpholino-2,3-dihydrobenzofuran-5-yl)pyrazolo[1,5-a]pyrimidine-3-carboxamide], 17 nM; under `CC(=O)c1cnc2c(C(=O)Nc3cc4c(cc3N3CCOCC3)O[C@](C)(CO)C4)cnn2c1` [Example 86, (S)-6-Acetyl-N-(2-(hydroxymethyl)-2-methyl-6-morpholino-2,3-dihydrobenzofuran-5-yl)pyrazolo[1,5-a]pyrimidine-3-carboxamide], 49 nM.
Under `CC1(CO)Cc2cc(NC(=O)c3cnn4cccnc34)c(N3CCN(CC(F)F)CC3)cc2O1` (centres unmarked) [Example 19, N-[6-[4-(2,2-Difluoroethyl)piperazin-1-yl]-2-(hydroxymethyl)-2-methyl-3H-benzofuran-5-yl]pyrazolo[1,5-a]pyrimidine-3-carboxamide] stands 3.3 nM; under `CC[C@]1(C)Cc2cc(NC(=O)c3cnn4cccnc34)c(N3CCOCC3)cc2O1` (single isomer, unassigned) [Example 97], 7.2 nM.
As for `CNc1cnc2c(C(=O)Nc3cc4c(cc3N3CCOCC3)OC3(CCN(C)CC3)C4)cnn2c1` [Example 380, N-(1′-methyl-6-morpholino-3H-spiro[benzofuran-2,4′-piperidin]-5-yl)-6-(methylamino)pyrazolo[1,5-a]pyrimidine-3-carboxamide], the Ki came to 8.1 nM.
As for `CN1CCC2(CC1)Cc1cc(NC(=O)c3cnn4cccnc34)c(OCC(F)F)cc1O2` [Example 378, N-(6-(2,2-difluoroethoxy)-1′-methyl-3H-spiro[benzofuran-2,4′-piperidin]-5-yl)pyrazolo[1,5-a]pyrimidine-3-carboxamide], the Ki is 7.3 nM.
Under `CN1CCC2(CC1)Cc1cc(NC(=O)c3cnn4cccnc34)c(N3CCOCC3)cc1O2` [Example 152, N-(1′-Methyl-6-morpholino-3H-spiro[benzofuran-2,4′-piperidine]-5-yl)pyrazolo[1,5-a]pyrimidine-3-carboxamide] stands 12 nM; under `CNc1cnc2c(C(=O)Nc3cc4c(cc3N3CCN(CC(F)F)CC3)OC(C)(C)C4)cnn2c1` [Example 379, N-[6-[4-(2,2-difluoroethyl)piperazin-1-yl]-2,2-dimethyl-3H-benzofuran-5-yl]-6-(methylamino)pyrazolo[1,5-a]pyrimidine-3-carboxamide], 5.1 nM.
